In PubChem BioAssay AID504752 (National Center for Advancing Translational Sciences (NCATS), 2011):

Experiment: Inhibitors of Cruzain: PBS Stability Profiling Assay
Conditions: PBS pH 7 stability, 37 C, LC-MS/MS, 48 h; at 2 µM; stronger effect = higher value
From the text: Chagas Disease is a neglected tropical disease that affects over 16 million people in Latin America. The cysteine protease cruzain is essential for the survival Trypanosoma cruzi, the parasitic agent responsible for Chagas disease. Potential intervention for T. cruzi includes the inhibition of cruzain. This bioassay will summarize the ongoing development of small molecule cruzain inhbitiors. Currently, a screen of ~200k compounds and through extensive follow-up work a probe was identified. To further characterize the probe, it was tested in in vitro ADME assays. The stability of the lead compound in PBS buffer is tested because this parameter has a significant impact on many ADME-concerned properties of drugs, such as uptake, distribution, transport, and eventually bioavailability. NIH Chemical Genomics Center [NCGC] NIH Molecular Libraries Probe Production Centers Network [MLPCN] MLSCN Grant: DA024891-01 PI Name: Dr. Brian Shoichet; University of California, San Francisco
2uM of compound is incubated in PBS buffer at pH 7; the reference compound is procaine. Compounds are incubated at 37 deg C for the pre-determined time periods and the when aliquots are removed. Samples are analyzed with LC-MS/MS.

- percent remaining: 100%
SMILES: Cc1ccc(OCCn2c(CCNC(=O)C3CCCCC3)nc3ccccc32)cc1
